Results reported in US11993570B2, “Cationic lipids” (TAKEDA PHARMACEUTICAL COMPANY LIMITED, priority 2017, dated 2024).

Assays:
[1] = Analysis of luciferase mRNA lipid particle composition (Production Example 1); type: physicochemical; settings: for Particle size: lipid particle cationic lipid:DPPC:cholesterol:GM-020=60:10.6:28:1.4 with luciferase mRNA, Zetasizer Nano ZS; for Encapsulation ratio / mRNA Concentration: lipid particle composition with luciferase mRNA, RiboGreen
From the text: (§1) The particle size of the lipid particle (in the composition) can be measured by using a known means. For example, a Zetasizer Nano ZS (Malvern Instruments Limited), a particle size analyzer based on an NIBS (non-invasive backscatter) technique, can be used to calculate the particle size as a z-average particle size through cumulant analysis of the autocorrelation function. The particle size (average particle size) of the lipid particle (in the composition) is preferably 10 to 200 nm.
(§2) The concentration and encapsulation ratio of a nucleic acid (e.g., an siRNA, an mRNA) as an active ingredient in the composition of the present invention can be measured by using a known means. For example, after the nucleic acid is fluorescence-labeled with Quant-iT™ RiboGreen® (Invitrogen), the concentration and the encapsulation ratio can be determined by measuring the fluorescence intensity. The concentration of the nucleic acid in the composition can be calculated by using a standard curve prepared from aqueous solutions of the nucleic acid with known concentrations, and the encapsulation ratio can be calculated on the basis of difference in fluorescence intensity depending on the presence or absence of addition of Triton-X100 (a surfactant to disintegrate the lipid particle). The concentration of the nucleic acid in the composition refers to the total concentration of molecules of the nucleic acid encapsulated in the lipid particle and molecules of the nucleic acid not encapsulated in the lipid particle, and the encapsulation ratio refers to the fraction of molecules of the nucleic acid encapsulated in the lipid particle to all the molecules of the nucleic acid in the composition.
(§3) A lipid mixture (cationic lipid produced in Examples:DPPC:cholesterol:GM-020=60:10.6:28:1.4, in mole ratio) was dissolved in 90% EtOH/10% RNase-free water to afford a 8.5 mg/mL lipid solution. Luciferase mRNA (TriLink Bio Technologies) was dissolved in 10 mM 2-morpholinoethanesulfonate (MES) buffer at pH 4.0 to afford a 0.22 mg/mL nucleic acid solution. The lipid solution and nucleic acid solution obtained were mixed by using the apparatus NanoAssemblr (Precision Nanosystems) at room temperature with a flow rate ratio of 3 mL/min:6 mL/min to afford a dispersion containing a lipid particle encapsulating the nucleic acid. By using a Slyde-A-Lyzer (molecular weight cutoff: 20k, Thermo Fisher Scientific), the dispersion obtained was dialyzed with water at room temperature for 1 hour and with PBS at 4° C. for 48 hours. Subsequently, filtration was performed with a 0.2 µm syringe filter (IWAKI CO., LTD.) to prepare a composition for nucleic acid introduction, and thereafter the composition was stored at 4° C. The particle size of the lipid particle was measured by using a Zetasizer Nano ZS (Malvern Instruments Limited). The mRNA concentration and encapsulation ratio of the lipid particle were measured by using a Quant-iT™ RiboGreen® (Invitrogen).

HCT116 cells = experiment: Test of mRNA transfection into cultured cells (luciferase expression); type: cell-based, human; settings: HCT116, 10 ng luciferase mRNA per well, 24 hours after addition
Experimental: as §3
The human colorectal cancer-derived cell line HCT116 cells were cultured in a 96-well plate at a cell density of 6000 cells/well, and 24 hours thereafter 10 μL of the composition containing 10 ng of luciferase mRNA for nucleic acid introduction (a solution obtained by diluting the product of Production Example 1 to an mRNA concentration of 10 ng/10 μL) was added to the medium. The level of luciferase expressed in HCT116 24 hours after the addition of mRNA was measured by using a Picagene LT2.0 kit (TOYOBO CO., LTD.).

[2] = Analysis of Col1a1/FVII siRNA lipid particle composition (Production Example 2); type: physicochemical; settings: for Particle size: lipid particle cationic lipid:DPPC:cholesterol:GM-020=60:10.6:28:1.4 with Col1a1 and FVII siRNA, Zetasizer Nano ZS; for Encapsulation ratio / siRNA Concentration: lipid particle composition with Col1a1 and FVII siRNA, RiboGreen
From the text: as §1, §2
A lipid mixture (cationic lipid produced in Examples:DPPC:cholesterol:GM-020=60:10.6:28:1.4, in mole ratio) was dissolved in 90% EtOH/10% RNase-free water to afford an approximately 7 mg/mL lipid solution. Equal amounts of an siRNA for Col1a1 and an siRNA for Factor VII (FVII) were mixed together, and the mixture was dissolved in 25 mM acetate buffer at pH 4.0 to afford a 0.2 mg/mL nucleic acid solution. Sequence information on the siRNAs are shown in a table below. The lipid solution and nucleic acid solution obtained were mixed by using the apparatus NanoAssemblr (Precision Nanosystems) at room temperature with a flow rate ratio of 3 mL/min:9 mL/min to afford a dispersion containing a lipid particle including the nucleic acids. By using a Slyde-A-Lyzer (molecular weight cutoff: 20k, Thermo Fisher Scientific), the dispersion obtained was dialyzed with water at room temperature for 1 hour and with PBS at 4° C. for 48 hours. Subsequently, filtration was performed with a 0.2 µm syringe filter (IWAKI CO., LTD.) to prepare a composition for nucleic acid introduction, and thereafter the composition was stored at 4° C. The particle size of the lipid particle was measured by using a Zetasizer Nano ZS (Malvern Instruments Limited). The mRNA concentration and encapsulation ratio of the lipid particle were measured by using a Quant-iT™ RiboGreen® (Invitrogen).

| SMILES | Particle size [1] [nm] | Encapsulation ratio [1] [%] | mRNA Concentration [1] [µg/mL] | Mean value of luminescence for 3 wells (HCT116 cells; Table 3 (PBS control 560)) [cps] | Particle size [2] [nm] | Encapsulation ratio [2] [%] | siRNA Concentration [2] [µg/mL] | Mean value of luminescence for 3 wells (HCT116 cells; Table 4 (PBS control 627)) [cps] |
| --- | --- | --- | --- | --- | --- | --- | --- | --- |
| CCCC/C=C\CCCCCCCC(=O)OCC(COC(=O)CCCCCCC/C=C\CCCC)(COC(=O)CCCCCCC/C=C\CCCC)COC(=O)CCCN(C)C [Example 1, 3-((4-(Dimethylamino)butanoyl)oxy)-2,2-bis(((9Z)-tetradec-9-enoyloxy)methyl)propyl (9Z)-tetradec-9-enoate] | 71 | 96 | 136 | 227720 | – | – | – | – |
| CCCC/C=C\CCCCCCCC(=O)OCC(COC(=O)CCCCCCC/C=C\CCCC)(COC(=O)CCCCCCC/C=C\CCCC)COC(=O)CCCCN(C)C [Example 2, 3-((5-(dimethylamino)pentanoyl)oxy)-2,2-bis(((9Z)-tetradec-9-enoyloxy)methyl)propyl (9Z)-tetradec-9-enoate] | 90 | 96 | 73 | 570027 | 104 | 98 | 251 | – |
| CCCC/C=C\CCCCCCCC(=O)OCC(COC(=O)CCCCCCC/C=C\CCCC)(COC(=O)CCCCCCC/C=C\CCCC)COC(=O)CCCCCN(C)C [Example 3, 3-((6-(dimethylamino)hexanoyl)oxy)-2,2-bis(((9Z)-tetradec-9-enoyloxy)methyl)propyl (9Z)-tetradec-9-enoate] | 93 | 96 | 87 | 412187 | 117 | 95 | 196 | – |
| CCCC/C=C\CCCCCCCC(=O)OCC(COC(=O)CCCCCCC/C=C\CCCC)(COC(=O)CCCCCCC/C=C\CCCCCC)COC(=O)CCCN(C)C [Example 4, 3-((4-(Dimethylamino)butanoyl)oxy)-2,2-bis(((9Z)-tetradec-9-enoyloxy)methyl)propyl (9Z)-hexadec-9-enoate] | 76 | 97 | 113 | 407547 | 90 | 89 | 355 | – |
| CCCC/C=C\CCCCCCCC(=O)OCC(COC(=O)CCCCCCC/C=C\CCCC)(COC(=O)CCCCCCC/C=C\CCCCCC)COC(=O)CCCCN(C)C [Example 5, 3-((5-(dimethylamino)pentanoyl)oxy)-2,2-bis(((9Z)-tetradec-9-enoyloxy)methyl)propyl (9Z)-hexadec-9-enoate] | 91 | 98 | 96 | 545507 | 103 | 94 | 367 | – |
| CCCC/C=C\CCCCCCCC(=O)OCC(COC(=O)CCCCCCC/C=C\CCCC)(COC(=O)CCCCCCC/C=C\CCCCCCCC)COC(=O)CCCCN(C)C [Example 6, 3-((5-(dimethylamino)pentanoyl)oxy)-2,2-bis(((9Z)-tetradec-9-enoyloxy)methyl)propyl (9Z)-octadec-9-enoate] | – | – | – | – | 87 | 98 | 333 | – |
| CCCC/C=C\CCCCCCCC(=O)OCC(COC(=O)CCCCCCC/C=C\C/C=C\CCCCC)(COC(=O)CCCCCCC/C=C\CCCC)COC(=O)CCCCN(C)C [Example 7, 3-((5-(dimethylamino)pentanoyl)oxy)-2,2-bis(((9Z)-tetradec-9-enoyloxy)methyl)propyl (9Z,12Z)-octadec-9,12-dienoate] | – | – | – | – | 102 | 96 | 320 | – |
| CCCC/C=C\CCCCCCCC(=O)OCC(COC(=O)CCCCCCC)(COC(=O)CCCCCCC/C=C\CCCC)COC(=O)CCN(C)C [Example 8, 2-(((N,N-dimethyl-β-alanyl)oxy]methyl}-2-[(octanoyloxy)methyl)propane-1,3-diyl (9Z,9′Z)bis-tetradec-9-enoate] | 67 | 94 | 84 | 3853 | – | – | – | – |
| CCCC/C=C\CCCCCCCC(=O)OCC(COC(=O)CCCCCCC)(COC(=O)CCCCCCC/C=C\CCCC)COC(=O)CCCN(C)C [Example 9, 2-(((4-(dimethylamino)butanoyl)oxy)methyl)-2-((octanoyloxy)methyl)propane-1,3-diyl (9Z,9′Z)bis-tetradec-9-enoate] | 108 | 62 | 129 | – | – | – | – | 549893 |
| CCCC/C=C\CCCCCCCC(=O)OCC(COC(=O)CCCCCCC/C=C\CCCC)(COC(=O)CCCCCCCCC)COC(=O)CCCN(C)C [Example 10, 2-((decanoyloxy)methyl)-2-(((4-(dimethylamino)butanoyl)oxy)methyl)propane-1,3-diyl (9Z,9′Z)bis-tetradec-9-enoate] | 92 | 84 | 86 | 1203467 | 88 | 90 | 307 | – |
| CCCC/C=C\CCCCCCCC(=O)OCC(COC(=O)CCCCCCC/C=C\CCCC)(COC(=O)CCCCCCCCCCC)COC(=O)CCCN(C)C [Example 11, 2-(((4-(Dimethylamino)butanoyl)oxy)methyl)-2-((dodecanoyloxy)methyl)propane-1,3-diyl (9Z,9′Z)bis-tetradec-9-enoate] | 83 | 92 | 85 | 953520 | 85 | 91 | 402 | – |
